Measured values published in patent US11103512B2, “Crystalline form of (S)-[2-chloro-4-fluoro-5-(7-morpholin-4-yl-quinazolin-4-yl)phenyl]-(6-methoxy-pyridazin-3-yl)-methanol” (Merck Patent GmbH, priority 2017, dated 2021).
≈ marks a conversion by molar mass, not a printed value.

Experiments:
[1] = Thermal behaviour by DSC and TGA; format: physicochemical; details: DSC and TGA profiles
Description: By contrast, the amorphous material decomposes at 170° C. (FIG. 2). The crystalline material therefore lends itself to further processing that involves high temperatures, such as hot melt extrusion and melt granulation.
• Powder X-ray diffractions (XRPD) were obtained by standard techniques as described in the European Pharmacopeia 7th Edition chapter 2.9.33 (Cu-Kai radiation, λ=1.5406 Å, Stoe StadiP 611 KL transmission diffractometer, ambient temperature); and in particular • For the amorphous form: The XRPD measurement was performed in transmission geometry with Cu-Kα1 radiation on a Stoe StadiP 611 diffractometer equipped with Mythen1K Si-strip detector (PSD). Approximately 5-20 mg of the sample were prepared on a combinatorial 96-well-plate sample holder comprising a mostly amorphous Kapton® foil on the bottom of the wells. Measurement was carried out by setting following parameters: • angular range: −36°−36 °2θ folded to 0-36 °2θ • angular resolution: 0.03 °2θ • PSD step with: 4 °2θ • measurement time: 30 s/PSD-step • generator settings: 40 mA, 40 kV • For the crystalline Form I: The measurement was performed in transmission geometry with Cu-Kα1 radiation on a Stoe StadiP 611 diffractometer equipped with Mythen1K Si-strip detector (PSD). Approximately 10-100 mg of the sample were prepared between amorphous films. […]

[2] = Water vapour sorption isotherm (DVS, 25° C.); format: physicochemical; details: for water uptake / hygroscopic behaviour (in words): water vapour sorption isotherm, FIG. 3
Source text: Form I can therefore be classified acc. to Ph. Eur. Criteria (section 5.11.) as not hygroscopic. The max. water uptake level (Δmmax at 98% rh) of Form I is <1% m/m. […] This non-hygroscpopic behaviour of Form I is advantageous both in case of using the material as a starting material, as it readily lends itself to storage, as well as using it “as is” in a pharmaceutical dosage form.
• Powder X-ray diffractions (XRPD) were obtained by standard techniques as described in the European Pharmacopeia 7th Edition chapter 2.9.33 (Cu-Kai radiation, λ=1.5406 Å, Stoe StadiP 611 KL transmission diffractometer, ambient temperature); and in particular • For the amorphous form: The XRPD measurement was performed in transmission geometry with Cu-Kα1 radiation on a Stoe StadiP 611 diffractometer equipped with Mythen1K Si-strip detector (PSD). Approximately 5-20 mg of the sample were prepared on a combinatorial 96-well-plate sample holder comprising a mostly amorphous Kapton® foil on the bottom of the wells. Measurement was carried out by setting following parameters: • angular range: −36°−36 °2θ folded to 0-36 °2θ • angular resolution: 0.03 °2θ • PSD step with: 4 °2θ • measurement time: 30 s/PSD-step • generator settings: 40 mA, 40 kV • For the crystalline Form I: The measurement was performed in transmission geometry with Cu-Kα1 radiation on a Stoe StadiP 611 diffractometer equipped with Mythen1K Si-strip detector (PSD). Approximately 10-100 mg of the sample were prepared between amorphous films. Measurement was carried out by setting following parameters: • angular range: 1°-41 °2θ • angular resolution: 0.015 °2θ • PSD step with: 0.49 °2θ • measurement time: 15 s/PSD-step • generator settings: 40 mA, 40 kV • DSC: • For the amorphous form: • Temperature modulated DSC (TOPEM®) was acquired on a Mettler-Toledo heat-flux Differential Scanning Calorimeter DSC 1 system. Approximately 0.5 mg sample amount were weighed accurately in a 40 μl Aluminium pan which was hermetically closed by a lid. The scan was carried out from 0° C. to 250° C. with a linear heating rate of 2 K/min, overlapped by a non-linear puls-modulated temperature programme with a pulse height of ±0.5 K and a stochastic pulse width from 15 s (min) to 45 s (max). Nitrogen purge gas at 50 mL/min was used. • For crystalline Form I: • DSC measurement was acquired on Mettler-Toledo heat-flux Differential Scanning Calorimeter system DSC 821e. Approximately 1-5 mg sample amount were weighed accurately in a 40 μl Aluminium pan with pierced lid. The scan was carried out from 25° C. to 350° C. with a linear heating rate of 5 K/min and a nitrogen purge gas at 50 mL/min. • TGA: • Sample was investigated on a Mettler-Toledo Thermogravimetric Analyser TGA 851 with autosampler, using a nitrogen inert gas atmosphere (flow 50 mL/min). Approximately 5-20 mg sample amount were weighed accurately in a 100 μl Aluminium pan and hermetically closed by Aluminium lids. Just before insertion to the oven the lid was pierced by a needle of the autosampler system. Scans were carried out from 25° C. to 350° C. at 5 K/min. The result was baseline-corrected with a blank run from an empty 100 μl Aluminium pan of the same type, using the identical temperature profile. • Water Vapour Sorption Isotherm: • Approximately 1-40 mg sample amount were weighed accurately into a 100 μl Al pan and hung into the sample position of the DVS instrument with microbalance and incubator (DVS-Intrinsic; Surface Measurement Systems, SMS). […]

[3] = Solubility measurements in biorelevant media (24 h shake, HPLC); format: physicochemical
[4] = system: DNA-PK autophosphorylation in cancer cell lines; details: background statement, no values; cited from earlier work
[5] = target: DNA-dependent protein kinase (DNA-PK) (Homo sapiens, UniProt P78527); details: background statement, no values; cited from earlier work

COc1ccc([C@@H](O)c2cc(-c3ncnc4cc(N5CCOCC5)ccc34)c(F)cc2Cl)nn1 [Form I, (S)-[2-chloro-4-fluoro-5-(7-morpholin-4-yl-quinazolin-4-yl)phenyl]-(6-methoxy-pyridazin-3-yl)-methanol]
melting/decomposition temperature (thermal stability) [1]: above 200 °C
max. water uptake level (Δmmax at 98% rh) ([2]; 98% rh, 25° C.): < 1 % m/m
hygroscopicity classification acc. to Ph. Eur. criteria (section 5.11.) ([2]; dm (80% rh−40% rh), 25° C.): not hygroscopic (dm (80% rh−40% rh)<0.2 wt %: not hygroscopic)
water uptake levels ([2]; relative humidity range 40-80% rh, 25° C.): < 1 % m/m
solubility at 24 h ([3]; FaSSIF (fasted state simulated intestinal fluid), pH 6.5, thermodynamic from solid, FaSSIF, pH of medium 6.5, 37 °C): 3 µg/mL (≈ 6.23 µM)
solubility at 24 h ([3]; FeSSIF (fed state simulated intestinal fluid), pH 5, thermodynamic from solid, FeSSIF, pH of medium 5.0, 37 °C): 17 ± 1 µg/mL (≈ 35.3 µM)
solubility at 24 h ([3]; SGF (simulated gastric fluid without pepsin), pH 1.2, simulated gastric fluid, thermodynamic from solid, SGF, pH of medium 1.2, 37 °C): 891 ± 33 µg/mL (≈ 1850 µM)

COc1ccc([C@@H](O)c2cc(-c3ncnc4cc(N5CCOCC5)ccc34)c(F)cc2Cl)nn1 [amorphous material, (S)-[2-chloro-4-fluoro-5-(7-morpholin-4-yl-quinazolin-4-yl)phenyl]-(6-methoxy-pyridazin-3-yl)-methanol]
melting/decomposition temperature (thermal stability) [1]: 170 °C
water uptake / hygroscopic behaviour (in words) [2]: significant water uptake
water uptake / hygroscopic behaviour (in words) ([2]; listed as amorphous solid form): hygroscopic

COc1ccc([C@@H](O)c2cc(-c3ncnc4cc(N5CCOCC5)ccc34)c(F)cc2Cl)nn1 [(S)-[2-chloro-4-fluoro-5-(7-morpholin-4-yl-quinazolin-4-yl)phenyl]-(6-methoxy-pyridazin-3-yl)-methanol]
inhibition of DNA-PK autophosphorylation (in words) [4]: potent inhibition
inhibition of DNA-PK activity (in words) [5]: potent and selective inhibitor
